Measured values published in US20230133132A1, “NAMPT MODULATORS” (Cytokinetics, Inc., priority 2020, published 2023).

What was measured:
[1] = target: human NAMPT (Homo sapiens, UniProt P43490); assay: Human recombinant enzyme assay (NMN fluorescence biochemical assay)
Protocol: Compounds described herein were assayed for their ability to stimulate the synthesis of nicotinamide mononucleotide (NMN) by the enzyme NAMPT. The human recombinant enzyme assay measures the activation of the enzyme activity by compounds using recombinant enzyme and substrates in a buffered cell-free system. The assay conditions closely mimic cellular environments. Dose responses were measured using an assay to detect the formation of nicotinamide mono-nucleotide. All experiments were performed in the 384-well format. Generally, 0.5 μL of DMSO containing varying concentrations of the test compound was mixed with 10 μL of the enzyme reagent solution. Enzyme reactions were initiated with the addition of 10 μL of a solution containing the substrates. The final assay conditions were as follows: 6 nM human NAMPT, 2.5 mM ATP, 20 μM PRPP and 150 μM nicotinamide in 50 mM HEPES, pH 7.2, 1 mM DTT, 1 mM CHAPS 50 mM NaCl, 100 mM MgCl2. Following an incubation of 60 min at ambient temperature, 10 μL of 20% acetophenone in DMSO was added, followed by 10 μL of 2 M KOH and 40 μL of formic acid. The plates were read for fluorescence (Excitation/Emission=355 nm/460 nm) using an EnVision plate reader after 40 mins of incubation at ambient temperature.

[2] = target: T1, endogenous NAMPT (Homo sapiens, UniProt P43490); assay: Cellular NAD+ modulation assay in SH-SY5Y cells; format: cell-based; conditions: 40 hours
T1 construct: stimulate the endogenous NAMPT in a native cellular environment; endogenous in cells; host or cells: SH-SY5Y neuroblastoma cells
T1 sequence (P43490 whole entry): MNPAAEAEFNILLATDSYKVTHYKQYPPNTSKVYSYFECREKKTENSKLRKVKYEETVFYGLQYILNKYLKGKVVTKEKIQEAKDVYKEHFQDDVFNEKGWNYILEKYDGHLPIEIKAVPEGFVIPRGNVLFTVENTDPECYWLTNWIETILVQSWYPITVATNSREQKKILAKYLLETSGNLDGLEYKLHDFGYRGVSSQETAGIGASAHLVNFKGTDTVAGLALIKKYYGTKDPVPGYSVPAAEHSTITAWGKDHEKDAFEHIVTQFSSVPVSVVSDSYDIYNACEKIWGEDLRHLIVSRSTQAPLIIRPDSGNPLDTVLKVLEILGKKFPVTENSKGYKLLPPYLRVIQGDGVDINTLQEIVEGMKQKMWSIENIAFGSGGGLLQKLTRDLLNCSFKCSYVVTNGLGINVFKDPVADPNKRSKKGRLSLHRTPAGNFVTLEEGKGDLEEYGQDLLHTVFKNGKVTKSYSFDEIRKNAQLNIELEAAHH
Protocol: The compounds described herein were also assayed for their ability to stimulate the endogenous NAMPT in a native cellular environment in the cellular NAD+ modulation assay, which measures the ability of the compound to modulate cellular NAD levels. Increased levels of NAD are expected by compounds that permeate the cells and activate the catalytic activity of the endogenous NAMPT.
Neuroblastoma SH-SY5Y cells were grown in 1:1 mixture of Eagle's Minimum Essential Medium and F12 Medium, along with 10% fetal bovine serum, in a humidified incubator with an atmosphere of 95% air and 5% C02 at 37° C. The assays were initiated by plating 20 μL of SH-SY5Y cells in culture medium with 0.1% fetal bovine serum, at a density of 5000 cells per well to a 384-well Corning™ BioCoat™ Poly-D-Lysine Multiwell Plates. The plates were incubated in the 37° C. incubators for a period of 5 hours. Compounds in DMSO were added to the plates in a volume of 120 nL using the Labcyte Echo Liquid Handlers. 5 μL of a 1.5 uM Doxorubicin solution in assay medium is added to each well. The plates are then incubated for 40 hours. 30 μL of a readout-solution containing 0.2 U/mL Diaphorase enzyme, 40 uM resazurin, 10 uM FMN, 0.8 U/mL Alcohol dehydrogenase, 3% ethanol, 0.4 mg/mL bovine serum albumin, 0.2% Triton X-100 in 100 mM Tris-HCl, 30 mM EDTA, pH 8.4. The plates were read for fluorescence (Excitation/Emission=540 nm/590 nm) using an EnVision plate reader after 60 mins of incubation at ambient temperature.

[3] = recombinant human NAMPT, NMN fluorescence, 60 min
[4] = 6 nM human NAMPT, 60 min, NMN formation by fluorescence
[5] = doxorubicin added, cellular NAD readout

Chain of human NAMPT (P43490 whole entry): as above

| SMILES | EC50 [1, 3] [µM] | EC50 ([2]; doxorubicin) [µM] | AC1.4 (the concentration of compounds that generates 40% higher activity over basal) [1, 4] [µM] | AC0.3 [2, 5] [µM] | other results |
| --- | --- | --- | --- | --- | --- |
| CC(C)(O)CN1CCN(Cc2ccc(NC(=O)NCc3ccncc3)cc2)CC1 [Comparator B, reference compound] | 19.7 | > 20.1 | – | – | – |
| CC(C)(O)CN1CCN(Cc2ccc(NC(=O)NCc3cn[nH]c3)cc2)CC1 [Comparator C, reference compound] | 35.1 | > 20.1 | – | – | – |
| CC(C)(O)CN1CCN(Cc2ccc(NC(=O)NCc3cnco3)cc2)CC1 [Comparator D, reference compound] | 36.5 | > 20.1 | – | – | – |
| C[C@H](NCc1ccccc1)c1ccc(NC(=O)NCc2ccc(Cl)cc2)cc1 [Compound 40, [(4-{(1S)-1-[benzylamino]ethyl}phenyl)amino]-N-[(4-chlorophenyl)methyl]carboxamide] | – | – | – | – | AC1.4 Human ([1]; recombinant human NAMPT, NMN fluorescence, 60 min, class symbols): A (AC1.4 values that are less than 0.5 μM); AC0.3 ([2]; doxorubicin, class symbols): C (AC0.3 values that are greater than 2.5 μM) |
| COc1ccc(CNC(=O)Nc2ccc(CN3CCN(CC(C)(C)O)CC3)cc2)cc1 [Compound 242, 1-(4-((4-(2-hydroxy-2-methylpropyl)piperazin-1-yl)methyl)phenyl)-3-(4-methoxybenzyl)urea] | 10.6 | 0.79 | 0.42 | 0.86 | – |

Continued, in another order:

| EC50 [1, 3] [µM] | EC50 ([2]; doxorubicin) [µM] | AC1.4 (the concentration of compounds that generates 40% higher activity over basal) [1, 4] [µM] | AC0.3 [2, 5] [µM] | SMILES | other results |
| --- | --- | --- | --- | --- | --- |
| 10.6 | 2.3 | – | – | CC(C)(O)CN1CCN(Cc2ccc(NC(=O)NCc3ccccc3)cc2)CC1 [Comparator A, reference compound] | potency relative to compounds with a halo or methoxy substituent at the R^1 position, as measured by AC1.4 ([1]; comparison of AC1.4 values): five to ten times less potent |
| 3.1 | 0.16 | 0.15 | 0.15 | CC(C)(O)CN1CCN(Cc2ccc(NC(=O)NCc3ccc(Cl)cc3)cc2)CC1 [Compound 36, {[(4-chlorophenyl)methyl]amino}-N-(4-{[4-(2-hydroxy-2-methylpropyl)piperazinyl]methyl}phenyl)carboxamide] | AC0.3 designation [2, 5]: A (AC0.3 values that are less than 0.5 μM) |
| 7.5 | 1.4 | 0.78 | 1.2 | CC(C)(O)CN1CCN(Cc2ccc(NC(=O)NCc3ccc(F)cc3)cc2)CC1 [Compound 167, {[(4-fluorophenyl)methyl]amino}-N-(4-{[4-(2-hydroxy-2-methylpropyl)piperazinyl]methyl}phenyl)carboxamide] | AC1.4 designation [1, 4]: B (AC1.4 values that are between 0.5 μM and 2.5 μM) |
